In US20240109900A1, “AZABICYCLIC SHP2 INHIBITORS” (IRBM S.P.A., priority 2021, published 2024):
Read-outs that look alike come from different tables or passages of the source.

Assays:
[1] = target: SHP-2 enzyme (Met1-Leu525) (Homo sapiens (Human), UniProt Q06124); assay: SHP2 inhibition enzymatic assay; format: biochemical; conditions: 0.5 nM SHP-2 activated by 500 nM IRS1 peptide, 75 μM DiFMUP substrate; read-out: SHP2wt-IC50
Summary of the method: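 Compounds were preincubated 30 min with 0.5 nM SHP-2 (Met1-Leu525) plus 500 nM IRS1 activating peptide (pH 7.2 HEPES, 5 mM DTT), then 75 μM DiFMUP substrate reacted 30 min at room temperature. After bpV quench, DiFMUP fluorescence gave % inhibition; four-parameter logistic fit yielded IC50.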

[2] = test system: ERK phosphorylation in KYSE-520 cells; assay: Phospho-ERK cellular assay; format: cell-based; conditions: KYSE-520 cells, 2 h at 37° C., phospho-ERK1/2 (Thr202/Tyr204) TR-FRET, read-out: PERK IC50
Summary of the method: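 TR-FRET read-out of ERK1/2 Thr202/Tyr204 phosphorylation was taken after overnight antibody incubation at room temperature. Before that, KYSE-520 cells were treated 2 h at 37 °C with compound dilutions and lysed 30 min. Percent inhibition relative to vehicle and cell-free wells was fitted four-parametrically to give IC50.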

SHP-2 enzyme (Met1-Leu525), sequence (Q06124 1-525): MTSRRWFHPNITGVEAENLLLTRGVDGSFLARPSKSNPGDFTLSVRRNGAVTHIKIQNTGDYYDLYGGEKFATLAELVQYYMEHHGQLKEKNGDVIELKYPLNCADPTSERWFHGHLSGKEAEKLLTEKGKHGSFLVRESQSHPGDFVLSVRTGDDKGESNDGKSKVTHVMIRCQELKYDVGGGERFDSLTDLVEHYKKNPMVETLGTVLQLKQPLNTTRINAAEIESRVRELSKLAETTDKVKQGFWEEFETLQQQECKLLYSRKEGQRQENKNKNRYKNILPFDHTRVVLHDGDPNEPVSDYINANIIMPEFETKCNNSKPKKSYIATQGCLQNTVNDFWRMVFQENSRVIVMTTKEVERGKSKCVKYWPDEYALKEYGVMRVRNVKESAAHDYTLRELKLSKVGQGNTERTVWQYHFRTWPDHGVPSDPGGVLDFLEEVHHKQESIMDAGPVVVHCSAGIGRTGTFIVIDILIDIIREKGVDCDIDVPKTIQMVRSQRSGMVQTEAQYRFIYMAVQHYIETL

SMILES | IC50 [1] | IC50 ([2]; Homo sapiens, KYSE-520, 2 h) | IC50 [2]
NC[C@]1(c2ccccc2F)[C@@H]2CCN(c3cnc4c(-c5ccc6n[nH]cc6c5Cl)n[nH]c4n3)C[C@@H]21 [Example 243, ((1S,6R,7R)-3-(3-(4-chloro-2H-indazol-5-yl)-1H-pyrazolo[3,4-b]pyrazin-6-yl)-7-(2-fluorophenyl)-3-azabicyclo[4.1.0]heptan-7-yl)methanamine] | < 500 nM | < 1000 nM | 
Cc1nccc(-c2n[nH]c3nc(N4CC[C@@H]5[C@H](C4)[C@@]5(CN)c4ccccc4F)cnc23)c1Cl [Example 189, ((1S,6R,7R)-3-(3-(3-chloro-2-methylpyridin-4-yl)-1H-pyrazolo[3,4-b]pyrazin-6-yl)-7-(2-fluorophenyl)-3-azabicyclo[4.1.0]heptan-7-yl)methanamine] | < 500 nM | < 1000 nM | 
CN1C(=O)C(F)(F)c2c1ccc(-c1n[nH]c3nc(N4CC[C@@H]5[C@H](C4)[C@@]5(CN)c4ccccc4F)cnc13)c2Cl [Example 362, 5-(6-((1S,6R,7R)-7-(aminomethyl)-7-(2-fluorophenyl)-3-azabicyclo[4.1.0]heptan-3-yl)-1H-pyrazolo[3,4-b]pyrazin-3-yl)-4-chloro-3,3-difluoro-1-methylindolin-2-one] | < 500 nM | < 1000 nM | 
COc1ccc(-c2n[nH]c3nc(N4CC[C@@H]5[C@H](C4)[C@@]5(CN)c4cccc(F)c4F)cnc23)c2cccnc12 [Example 183, ((1S,6R,7R)-7-(2,3-difluorophenyl)-3-(3-(8-methoxyquinolin-5-yl)-1H-pyrazolo[3,4-b]pyrazin-6-yl)-3-azabicyclo[4.1.0]heptan-7-yl)methanamine] | < 500 nM | < 1000 nM | 
NC[C@]1(c2ccccc2F)[C@@H]2CCN(c3cnc4c(-c5ccc6ccc(=O)[nH]c6c5)n[nH]c4n3)C[C@@H]21 [Example 231, 7-(6-((1S,6R,7R)-7-(aminomethyl)-7-(2-fluorophenyl)-3-azabicyclo[4.1.0]heptan-3-yl)-1H-pyrazolo[3,4-b]pyrazin-3-yl)quinolin-2(1H)-one] | < 500 nM | < 1000 nM | 
NC[C@]1(c2ccccc2F)[C@@H]2CCN(c3cnc4c(-c5cc6c(cc5Cl)NC(=O)C6=O)n[nH]c4n3)C[C@@H]21 [Example 375, 5-(6-((1S,6R,7R)-7-(aminomethyl)-7-(2-fluorophenyl)-3-azabicyclo[4.1.0]heptan-3-yl)-1H-pyrazolo[3,4-b]pyrazin-3-yl)-6-chloroindoline-2,3-dione] | < 500 nM | < 1000 nM | 
Cc1cc([C@@]2(CN)[C@@H]3CCN(c4cnc5c(-c6ccc7nc(C)sc7c6Cl)n[nH]c5n4)C[C@@H]32)no1 [Example 107, ((1S,6R,7S)-3-(3-(7-chloro-2-methylbenzo[d]thiazol-6-yl)-1H-pyrazolo[3,4-b]pyrazin-6-yl)-7-(5-methylisoxazol-3-yl)-3-azabicyclo[4.1.0]heptan-7-yl)methanamine] | < 500 nM | < 1000 nM | 
Cc1cc(C2(CN)C3CCN(c4cnc5c(Sc6ccnc7ccsc67)n[nH]c5n4)CC32)no1 (stereo not drawn) [Example 54, (7-(5-methylisoxazol-3-yl)-3-(3-(thieno[3,2-b]pyridin-7-ylthio)-1H-pyrazolo[3,4-b]pyrazin-6-yl)-3-azabicyclo[4.1.0]heptan-7-yl)methanamine] | < 500 nM | < 1000 nM | 
Cc1csc(C2(CN)C3CCN(c4cnc5c(-c6cccc7ncccc67)n[nH]c5n4)CC32)n1 (stereo not drawn) [Example 88, (7-(4-methylthiazol-2-yl)-3-(3-(quinolin-5-yl)-1H-pyrazolo[3,4-b]pyrazin-6-yl)-3-azabicyclo[4.1.0]heptan-7-yl)methanamine] | < 500 nM | < 1000 nM | 
CN(C)C(=O)C1(CN)C2CCN(c3cnc4c(-c5ccc6nn(C)cc6c5Cl)n[nH]c4n3)CC21 (stereo not drawn) [Example 286, 7-(aminomethyl)-3-(3-(4-chloro-2-methyl-2H-indazol-5-yl)-1H-pyrazolo[3,4-b]pyrazin-6-yl)-N,N-dimethyl-3-azabicyclo[4.1.0]heptane-7-carboxamide] | < 500 nM | > 5000 nM | 
NC[C@]1(c2ccccc2F)[C@@H]2CCN(c3cnc4c(-c5ccc(F)c6ncccc56)c[nH]c4n3)C[C@@H]21 [Example 507, ((1S,6R,7R)-7-(2-fluorophenyl)-3-(7-(8-fluoroquinolin-5-yl)-5H-pyrrolo[2,3-b]pyrazin-3-yl)-3-azabicyclo[4.1.0]heptan-7-yl)methanamine] | < 500 nM | < 1000 nM | 
Cn1c(N2CC[C@@H]3[C@H](C2)[C@@]3(CN)c2ccccc2F)nc2[nH]cc(-c3ccc4c(=O)[nH]ccc4c3F)c2c1=O [Example 380, 6-(2-((1S,6R,7R)-7-(aminomethyl)-7-(2-fluorophenyl)-3-azabicyclo[4.1.0]heptan-3-yl)-3-methyl-4-oxo-4,7-dihydro-3H-pyrrolo[2,3-d]pyrimidin-5-yl)-5-fluoroisoquinolin-1(2H)-one] | < 500 nM | < 1000 nM | 
Cc1cc([C@@]2(CN)[C@@H]3CCN(c4cnc5c(-c6cccc7c6C(F)(F)C(=O)N7C)n[nH]c5n4)C[C@@H]32)no1 [Example 51, 4-(6-((1S,6R,7S)-7-(aminomethyl)-7-(5-methylisoxazol-3-yl)-3-azabicyclo[4.1.0]heptan-3-yl)-1H-pyrazolo[3,4-b]pyrazin-3-yl)-3,3-difluoro-1-methylindolin-2-one] | < 500 nM | < 1000 nM | 
Cc1csc(C2(CN)[C@@H]3CN(c4cnc5c(-c6ccc7c(cnn7C)c6Cl)n[nH]c5n4)C[C@@H]32)n1 (stereo partly drawn) [Example 480] | < 500 nM |  | < 1000 nM
NC[C@]1(c2cc(F)ccc2F)[C@@H]2CCN(c3cnc(Sc4ccnc(-n5cccn5)c4Cl)cn3)C[C@@H]21 [Example 402, ((1S,6R,7R)-3-(5-((3-chloro-2-(1H-pyrazol-1-yl)pyridin-4-yl)thio)pyrazin-2-yl)-7-(2,5-difluorophenyl)-3-azabicyclo[4.1.0]heptan-7-yl)methanamine] | < 500 nM | < 1000 nM | 
NC[C@]1(c2ccccc2F)[C@@H]2CCN(c3cnc4c(-c5ccc6[nH]c(=O)[nH]c6c5)n[nH]c4n3)C[C@@H]21 [Example 239, 5-(6-((1S,6R,7R)-7-(aminomethyl)-7-(2-fluorophenyl)-3-azabicyclo[4.1.0]heptan-3-yl)-1H-pyrazolo[3,4-b]pyrazin-3-yl)-1,3-dihydro-2H-benzo[d]imidazol-2-one] | < 500 nM | < 1000 nM | 
NC[C@]1(c2ccccc2F)[C@@H]2CCN(c3cnc4c(Sc5ccnc(N)c5Cl)n[nH]c4n3)C[C@@H]21 [Example 397, 4-((6-((1S,6R,7R)-7-(aminomethyl)-7-(2-fluorophenyl)-3-azabicyclo[4.1.0]heptan-3-yl)-1H-pyrazolo[3,4-b]pyrazin-3-yl)thio)-3-chloropyridin-2-amine] | < 500 nM | < 1000 nM | 
Cc1c(-c2n[nH]c3nc(N4CC[C@@H]5[C@H](C4)[C@@]5(CN)c4ccccc4F)cnc23)ccc2c1n(C)c(=O)n2C [Example 261, 5-(6-((1S,6R,7R)-7-(aminomethyl)-7-(2-fluorophenyl)-3-azabicyclo[4.1.0]heptan-3-yl)-1H-pyrazolo[3,4-b]pyrazin-3-yl)-1,3,4-trimethyl-1,3-dihydro-2H-benzo[d]imidazol-2-one] | < 500 nM | < 1000 nM | 
